# Measurements as given in patent US8193180B2, “N-amino tetrahydrothiazine derivatives, method of manufacture and use” (Women & Infants Hospital, priority 2007, dated 2012).
# Assays:
# breast cancer = assay: Breast cancer prophylaxis, patient case (Example 8); type: in vivo, human; conditions: 5 mg/kg daily by tablets for 48 months, BRCA 1 and 2 markers
# Procedure: A subject presents normally, but has BRCA 1 and 2 markers as well as a family history of breast cancer. The subject is treated daily with 5 mg/kg of N-(3-methyl-1,1-dioxo-1,4-thiazinan-4-yl)-1-[5,6-dimethoxy coumarin-2-yl]methanimine by tablets for 48 months.
# end stage liver cancer = assay: Liver cancer treatment, patient case (Example 9); type: in vivo, human; conditions: 10 mg/kg daily orally or IV for 48 days
# Procedure: A subject presents with end stage liver cancer refractory to all other treatments. The subject is treated daily with 10 mg/kg of N-(3-methyl-1,1-dioxo-1,4-thiazinan-4-yl)-1-[1-phenyl, 1-furan-2-yl] orally or IV for 48 days.
# [1] = system: Stage V Alzheimer's disease; assay: Alzheimer treatment, patient case (second Example 10); type: in vivo, human; conditions: 5 mg/kg oral daily, chronically, six month period
# Procedure: A subject presents with Stage V Alzheimer's disease. The subject is treated daily with 5 mg/kg oral doses of N-(3-methyl-1,1-dioxo-1,4-thiazinan-4-yl)-1-[3,4,5-trimethoxy phenyl sulfonyl], chronically.
# stage III ovarian cancer = assay: Ovarian cancer treatment, patient case (Example 10); type: in vivo, human; conditions: 10 mg/kg daily orally or IV for 48 days
# Procedure: A subject presents with recurrent/progressive stage III ovarian cancer refractory to all other treatments. The subject is treated daily with 10 mg/kg of N-(3-methyl-1,1-dioxo-1,4-thiazinan-4-yl)-1-[3-chloro, 5-bromo coumarin-2-carbonyl] orally or IV for 48 days.
# [2] = system: Stage IV pancreatic cancer; assay: Treatment of pancreatic cancer, patient case (Example 7); type: in vivo, human; conditions: 10 mg/kg/day tablets every other day for 30 days (15 doses)
# Procedure: A subject presents with Stage IV pancreatic cancer. The subject is treated daily with 10 mg/kg/day of N-(3-methyl-1,1-dioxo-1,4-thiazinan-4-yl)-1-[1-phenyl, 1-acetic acid]methane by tablets every other day for 30 consecutive days (15 doses). Upon examination, cancer involvement is found reduced by about 20%.
# [3] = system: SMS-KCNR neuroblastoma cells; assay: cells; conditions: Homo sapiens, 48 h, read-out: cell viability, mean value
# Procedure: SMS-KCNR neuroblastoma cells were incubated for 48 hours with increasing levels of either nifurtimox or RKS-2-62, and cytotoxicity was determined using the Calcein AM cell viability assay. […] SMSKCNR cells were plated in 48 wells plates and treated with 0-20 μg/mL of either RKS-2-62 or nifurtimox for 48 hours. Cell viability was assessed using Calcein AM assay.
# SMSKCNR cells [4] = assay: Neuroblastoma xenograft mouse model, oral dosing in food pellets; conditions: 3 weeks
# Procedure: Nude mice were injected subcutaneously in the flank with 10^7 SMSKCNR cells and tumors were allowed to grow for 7 days. Mice were then fed either control food pellets or pellets containing 50, 100, or 150 mg/kg/day of RKS-2-62 for 3 weeks (4 mice per group). Tumors were harvested and weighed.
# SMSKCNR cells [5] = assay: Reactive oxygen species, carboxylated DCF flow cytometry; type: cell-based, human; conditions: 90 minutes incubation, vs control
# Procedure: RKS-2-62 increases reactive oxygen species in neuroblastoma cells. SMSKCNR cells treated with RKS-2-62 were incubated with carboxyl-DCF. SMSKCNR cells were grown in T25 flasks and incubated in RKS-2-62 for 90 minutes prior to treatment with carboxylated DCF. Cells were collected and analyzed by flow cytometry. […] Control is the left hand peak in grey. RKS-2-62 is the right hand peak. Oxidation of DCF by reactive oxygen species (ROS) causes increased fluorescence, and a lower concentration of RKS-2-62 than of nifurtimox was required to achieve the same effect.
# [6] = Chloroform/water partition test; type: physicochemical
# Procedure: In addition, RKS-2-26 is lipid soluble and likely to cross the blood brain barrier. […] Then 1 mL of distilled water was added and vortexed.
# [7] = system: DAOY medulloblastoma cells; assay: Calcein AM cell viability assay, DAOY medulloblastoma cells; type: cell-based; conditions: 48 hours
# Text: (§1) For the D283 cell line, viability after exposure to RKS was decreased compared to nifurtimox (P=0.008), with similar results for the DAOY cell line (P=0.026).
# [8] = system: D283 medulloblastoma cells; assay: Calcein AM cell viability assay, D283 medulloblastoma cells; type: cell-based; conditions: 48 hours
# Text: as §1
# Stage IV breast cancer = assay: Treatment of breast cancer, patient case (Example 6); type: in vivo, human; conditions: 10 mg/kg/day orally or IV daily for 15 consecutive days
# Procedure: A subject presents with Stage IV breast cancer and axillary lymph node involvement. The subject is treated with 10 mg/kg/day of N-(3-methyl-1,1-dioxo-1,4-thiazinan-4-yl)-1-[1-phenyl, 1-methanol]methane orally or IV daily for 15 consecutive days. Upon examination, cancer involvement is found reduced by about 20%.
# Stage IV neuroblastoma = assay: Treatment of neuroblastoma, patient case (Example 5); type: in vivo, human
# Text: A person presents with Stage IV neuroblastoma. […] Upon examination, tumor mass is found reduced by about 50%.
smiles,measurement,setting,value
COc1cc2cc(C=NN3CCS(=O)(=O)CC3C)c(=O)oc2cc1OC (stereo not shown),cancer involvement upon examination,breast cancer,no cancer involvement is found
"CC1CS(=O)(=O)CCN1N(c1ccccc1)c1ccco1 (stereo not shown) [N-(3-methyl-1,1-dioxo-1,4-thiazinan-4-yl)-1-[1-phenyl, 1-furan-2-yl]]",liver cancer involvement upon examination,end stage liver cancer,no liver cancer involvement is found
"COc1cc(S(=O)(=O)NN2CCS(=O)(=O)CC2C)cc(OC)c1OC (stereo not shown) [N-(3-methyl-1,1-dioxo-1,4-thiazinan-4-yl)-1-[1-(3,4,5-trimethoxyphenylsulfonyl]]",progression of the disease,[1],substantially no progression of the disease is noted
CC1CS(=O)(=O)CCN1NC(=O)c1c(Cl)c2cc(Br)ccc2oc1=O (stereo not shown),tumor growth upon examination,stage III ovarian cancer,no further tumor growth is noted
"CC1CS(=O)(=O)CCN1NC(CC(=O)O)c1ccccc1 (stereo not shown) [N-(3-methyl-1,1-dioxo-1,4-thiazinan-4-yl)-1-[1-phenyl, 1-acetic acid]methane]",reduction of cancer involvement,[2],about 20%
CC1CS(=O)(=O)CCN1N=Cc1c(Cl)c2cc(Br)ccc2oc1=O (stereo not shown) [RKS-2-62],viability at 5 µg/mL,[3],51.9%
same,decrease of tumor weight compared to the control group,SMSKCNR cells [4]; 50 mg/kg/day oral in food pellets,greater than 75%
same,decrease of tumor weight compared to the control group,SMSKCNR cells [4]; 100 mg/kg/day oral in food pellets,greater than 75%
same,decrease of tumor weight compared to the control group,SMSKCNR cells [4]; 150 mg/kg/day oral in food pellets,greater than 75%
same,tolerability compared with nifurtimox,"SMSKCNR cells [4]; mice, oral",better tolerated in mice than nifurtimox
same,production of ROS (DCF fluorescence),SMSKCNR cells [5],increase in production of ROS
same,lipid solubility,[6],lipid soluble
same,distribution between chloroform layer and aqueous layer,"[6]; 10 μg/μL in chloroform, 1 mL distilled water added, vortexed",remained solely in the chloroform layer and not the aqueous layer
same,solubility in chloroform,[6]; solution of 10 μg/μL,shown to dissolve in chloroform
same,growth inhibition compared with nifurtimox,[7]; 0-10 μg/mL,inhibited the growth of both cell lines in a dose-dependent fashion and to a greater extent than nifurtimox
same,cytotoxicity at 10 µg/mL,"[7]; Homo sapiens, 10 μg/mL, read-out: decrease of viability",> 80%
same,growth inhibition compared with nifurtimox,[8]; 0-10 μg/mL,inhibited the growth of both cell lines in a dose-dependent fashion and to a greater extent than nifurtimox
same,cytotoxicity at 10 µg/mL,"[8]; 10 μg/mL, read-out: decrease of viability",> 80%
"CC1CS(=O)(=O)CCN1/N=C\c1ccc([N+](=O)[O-])o1 (stereo not shown) [nifurtimox, reference compound]",viability at 5 µg/mL,[3],88.4%
"CC1CS(=O)(=O)CCN1NC(CO)c1ccccc1 (stereo not shown) [N-(3-methyl-1,1-dioxo-1,4-thiazinan-4-yl)-1-[1-phenyl, 1-methanol]methane]",reduction of cancer involvement,Stage IV breast cancer,about 20%
"CC1CS(=O)(=O)CCN1NC(c1ccccc1)c1ccccc1 (stereo not shown) [N-(3-methyl-1,1-dioxo-1,4-thiazinan-4-yl)-1-[1,1-diphenyl]methane]",tumor response,Stage IV neuroblastoma; 15 mg/kg/day orally or IV for 2 weeks,tumor stabilization
same,reduction of tumor mass,"Stage IV neuroblastoma; with further addition of cyclophosphamide and topotecan, 8 weeks",about 50%
